We go through two compounds from PMC7574383 (Epigenetics, 2020).

In one data set the test system is HepG2 cells. The data set can be described thus: Senescence-associated β-galactosidase assay, HepG2. The format is cell-based, human. Particulars: HepG2, DOXO 0.5 μM, 48 h.
A further data set has as its system H9c2 cells. The data set can be described thus: Senescence-associated β-galactosidase assay, H9c2. Particulars: H9c2, DOXO 0.5 μM, 48 h. The format is cell-based, rat.
In another data set the test system is Caco-2 cell monolayer. The data set can be described thus: Caco-2 permeability assay. The format is in vitro ADME, human. Particulars: Caco-2 monolayer, compounds at 100 μg/ml, after three hours of treatment.

In the case of `COc1cccc2c1C(=O)c1c(O)c3c(c(O)c1C2=O)C[C@@](O)(C(=O)CO)C[C@@H]3O[C@H]1C[C@H](N)[C@H](O)[C@H](C)O1` [DOXO, doxorubicin], the “SA β-gal-positive cells induced” value was “about 60%” with HepG2 cells and around 35% in the data set with H9c2 cells.

Take `CC(C)NCC(O)COc1cccc2ccccc12` (stereo not drawn) [Propranolol]: the “Permeability (%)” value in the data set with Caco-2 cell monolayer is 82.4%.
